Assay [1] addresses T1, MMP-2 (Homo sapiens, UniProt P08253).
T1 construct: purchased Oncogene Research Products (Calbiochem) PF023
T1 sequence (P08253 110-660): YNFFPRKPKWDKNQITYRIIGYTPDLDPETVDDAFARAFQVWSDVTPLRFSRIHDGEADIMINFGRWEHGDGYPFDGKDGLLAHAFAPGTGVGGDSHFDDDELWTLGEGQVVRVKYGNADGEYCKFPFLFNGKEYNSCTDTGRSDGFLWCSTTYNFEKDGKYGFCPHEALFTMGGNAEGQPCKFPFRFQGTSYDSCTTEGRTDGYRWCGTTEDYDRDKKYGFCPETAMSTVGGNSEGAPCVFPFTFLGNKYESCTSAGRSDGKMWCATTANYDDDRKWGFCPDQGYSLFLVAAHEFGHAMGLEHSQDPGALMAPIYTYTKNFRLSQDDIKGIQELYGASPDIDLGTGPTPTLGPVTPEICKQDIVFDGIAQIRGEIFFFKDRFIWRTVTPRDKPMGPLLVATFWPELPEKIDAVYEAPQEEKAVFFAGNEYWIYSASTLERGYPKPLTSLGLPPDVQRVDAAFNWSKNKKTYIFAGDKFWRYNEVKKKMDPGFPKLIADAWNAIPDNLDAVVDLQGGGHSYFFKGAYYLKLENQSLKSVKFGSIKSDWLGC
As to the kind of experiment: In-vitro fluorescence assay of MMP-2 activity. Type of assay: biochemical. Conditions: recombinant human MMP-2; read-out: MMP-2 IC50.

Assay [2] deals with T2, MMP-13 (Homo sapiens, UniProt P45452).
T2 construct: made in house
Briefly: In-vitro fluorescence assay of MMP-13 activity. Type of assay: biochemical. Conditions: recombinant human catalytic domain of MMP-13; read-out: MMP-13 IC50.
Procedure: A continuous assay was used in which the substrate is a synthetic peptide containing a fluorescent group (7-methoxycoumarin; Mca) which is quenched by energy transfer to a 2,4-dinitrophenyl group. […] The substrate used was Mca-PQGL-(3-[2,4-dinitrophenyl]-L-2,3-diaminopropionyl)-AR-OH (denoted as Wammp-5, custom synthesized by AnaSpec, Inc.). The assay buffer consisted of 50 mM Hepes (pH 7.4), 100 mM NaCl, 5 mM CaCl2, and 0.005% Brij-35. Each well of black polystyrene 96-well plates contained a 200 μL reaction mixture consisting of assay buffer, purified MMP (final concentration of 0.5 nM, prepared by diluting with the assay buffer), and varied concentrations of inhibitor (prepared by serially diluting a given inhibitor in DMSO in 96-well polypropylene plate). […] The enzymatic reactions were initiated by adding the substrate to a final concentration of 20 μM, and mixing 10 times with a pipette. The final DMSO concentration in the assay was 6.0%.
Plots of the inhibitor concentration vs. the percent inhibition were fit to the following equation: y=(a−d)/[1+(x/c)^b]+d, a general sigmoidal curve with Hill slope, a to d. x is the inhibitor concentration under test. y is the percent inhibition. a is the limiting response as x approaches zero. As x increases without bound, y tends toward its limit d. c is the inflection point (IC50) for the curve. That is, y is halfway between the lower and upper asymptotes when x=c. b is the slope factor or Hill coefficient.

Where a name gives a salt, the structure may show the parent alone.

A word on the IC50: it is the point on the concentration scale where inhibition reaches its midpoint. On to `Cc1c(C(=O)Nc2ccc(-c3ccc(S(=O)(=O)N[C@H](C(=O)O)C(C)C)cc3)cc2)oc2cccc(N)c12` [Example 61, L-2-{4′-[(4-Amino-3-methyl-benzofuran-2-carbonyl)-amino]-biphenyl-4-sulfonylamino}-3-methyl-butyric acid], for which the results for the half-inhibitory concentration (IC50) in assay [1] and in assay [2] were 323 nM and 4.3 nM, respectively.

In the case of `C=Cc1cccc2oc(C(=O)Nc3ccc(-c4ccc(S(=O)(=O)N[C@H](C(=O)O)C(C)C)cc4)cc3)c(C)c12` [Example 96, N-[(4′-{[(3-methyl-4-vinyl-1-benzofuran-2-yl)carbonyl]amino}-1,1′-biphenyl-4-yl)sulfonyl]-L-valine], the IC50 in assay [1] worked out at 625 nM; in assay [2], 4.4 nM.

Regarding `COCCc1cccc2oc(C(=O)Nc3ccc(-c4ccc(S(=O)(=O)N[C@H](C(=O)O)C(C)C)cc4)cc3)c(C)c12` [Example 102, N-{[4′-({[4-(2-methoxyethyl)-3-methyl-1-benzofuran-2-yl]carbonyl}amino)-1,1′-biphenyl-4-yl]sulfonyl}-L-valinate], the half-maximal inhibitory concentration (IC50) stood at 1520 nM in assay [1] and 5.7 nM in assay [2].

With `Cc1c(C(=O)Nc2ccc(-c3ccc(S(=O)(=O)N[C@H](C(=O)O)C(C)C)cc3)cc2)oc2cccc(OC(C)C)c12` [Example 108, (S)-2-{4′-[(4-Isopropoxy-3-methyl-benzofuran-2-carbonyl)-amino]-biphenyl-4-sulfonylamino}-3-methyl-butyric acid], the IC50 in assay [1] is 4290 nM; in assay [2] it was 13 nM.

Regarding `CC(C)[C@@H](NS(=O)(=O)c1ccc(-c2ccc(OCc3nc4ccccc4n3C)cc2)cc1)C(=O)O` [Example 138, D-3-Methyl-2-[4′-(1-methyl-1H-benzoimidazol-2-ylmethoxy)-biphenyl-4-sulfonylamino]-butyric acid], the IC50 in assay [1] was 1120 nM; in assay [2], 89.3 nM.

As to `Cc1c(C(=O)Nc2ccc(-c3ccc(S(=O)(=O)N[C@H](C(=O)O)C(C)C)cc3)cc2)oc2cccc(CCC3CC3)c12` [Example 24, L-2-(4′-{[4-(2-Cyclopropyl-ethyl)-3-methyl-benzofuran-2-carbonyl]-amino}-biphenyl-4-sulfonylamino)-3-methyl-butyric acid], the IC50 was 8000 nM in assay [1] and 24 nM in assay [2].

On to `CCc1ccc2oc(C(=O)Nc3ccc(-c4ccc(S(=O)(=O)N[C@H](C(=O)O)C(C)C)cc4)cc3)c(C)c2c1OC(C)C` [Example 88, N-[(4′-{[(5-Ethyl-4-isopropoxy-3-methyl-1-benzofuran-2-yl)carbonyl]amino}-1,1′-biphenyl-4-yl)sulfonyl]-L-valine], for which the IC50 turned out to be 7000 nM in assay [1] and 27 nM in assay [2].

With `COc1c(C)ccc2oc(C(=O)Nc3ccc(-c4ccc(S(=O)(=O)N[C@H](C(=O)O)C(C)C)cc4)cc3)c(C)c12` [Example 125, (S)-2-{4′-[(5-Methyl-4-methoxy-3-methyl-benzofuran-2-carbonyl)-amino]-biphenyl-4-sulfonylamino}-3-methyl-butyric acid], the IC50 is 1610 nM in assay [1] and 4.9 nM in assay [2].

Take `CC(Oc1cccc2oc(C(=O)Nc3ccc(-c4ccc(S(=O)(=O)N[C@H](C(=O)O)C(C)C)cc4)cc3)cc12)C(=O)O` (stereo partly drawn) [Example 14, 4′-{[4-(1-Carboxy-ethoxy)-benzofuran-2-carbonyl]-amino}-biphenyl-4-sulfonyl-L-valine]: the 50% inhibitory concentration (IC50) came to 916 nM in assay [1] and 11 nM in assay [2].

Turning to `Cc1c(C(=O)Nc2ccc(-c3ccc(S(=O)(=O)N[C@H](C(=O)O)C(C)C)cc3)cc2)oc2cccc(NC(=O)C(F)(F)F)c12` [Example 67, L-3-Methyl-2-(4′-{[3-methyl-4-(2,2,2-trifluoro-acetylamino)-benzofuran-2-carbonyl]-amino}-biphenyl-4-sulfonylamino)-butyric acid], the IC50 in assay [1] was found to be 5750 nM; in assay [2], 20 nM.

In the case of `CC(C)[C@H](NS(=O)(=O)c1ccc(-c2ccc(NC(=O)c3cc4cc([N+](=O)[O-])ccc4o3)cc2)cc1)C(=O)O` [Example 6, N-[(4′-{[(5-nitro-1-benzofuran-2-yl)carbonyl]amino}-1,1′-biphenyl-4-yl)sulfonyl]-L-valine], the IC50 came out at 3.3 nM in assay [1] and 0.7 nM in assay [2].

`Cc1c(C(=O)Nc2ccc(-c3ccc(S(=O)(=O)N[C@H](C(=O)O)C(C)C)cc3)cc2)oc2cccc(C#CCC(C)C)c12` [Example 28, L-3-Methyl-2-(4′-{[3-methyl-4-(4-methyl-pent-1-ynyl)-benzofuran-2-carbonyl]-amino}-biphenyl-4-sulfonylamino)-butyric acid]: the IC50 is 6640 nM in assay [1] and 47 nM in assay [2].

With `CCn1c(C(=O)Nc2ccc(-c3ccc(S(=O)(=O)N[C@H](C(=O)O)C(C)C)cc3)nc2)nc2ccccc21` [Example 162, L-2-(4-{5-[(1-Ethyl-1H-benzimidazole-2-carbonyl)-amino]-pyridin-2-yl}-benzenesulfonylamino)-3-methyl-butyric acid], the concentration for half-maximal inhibition (IC50) in assay [1] stood at 2610 nM; in assay [2], 85 nM.

As for `CNC(=O)c1cccc2oc(C(=O)Nc3ccc(-c4ccc(S(=O)(=O)N[C@H](C(=O)O)C(C)C)cc4)cc3)c(C)c12` [Example 43A, (L-3-methyl-2-{4′-[(3-methyl-4-methylcarbamoyl-benzofuran-2-carbonyl)-amino]-biphenyl-4-sulfonylamino}-butyric acid triethylamine salt], the half-inhibitory concentration (IC50) stood at 6720 nM in assay [1] and 22 nM in assay [2].

`Cc1c(C(=O)Nc2ccc(-c3ccc(S(=O)(=O)N[C@H](C(=O)O)C(C)C)cc3)cc2)oc2cccc(C(O)CO)c12` (stereo partly drawn) [Example 97, N-{[4′-({[4-(1,2-dihydroxyethyl)-3-methyl-1-benzofuran-2-yl]carbonyl}amino)-1,1′-biphenyl-4-yl]sulfonyl}-L-valine]: the results for the IC50 in assay [1] and in assay [2] were 2860 nM and 14 nM, respectively.

`CC(C)[C@H](NS(=O)(=O)c1ccc(-c2ccc(NC(=O)c3nc4cc(Cl)ccc4s3)cc2)cc1)C(=O)O` [Example 130, (S)-3-Methyl-2-{4′-[(5-chloro-benzothiazole-2-carbonyl)-amino]-biphenyl-4-sulfonylamino}-butyric acid]: the half-maximal inhibitory concentration (IC50) in assay [1] is 25.9 nM; in assay [2], 2 nM.

As to `Cc1c(C(=O)Nc2ccc(-c3ccc(S(=O)(=O)N[C@H](C(=O)O)C(C)C)cc3)cc2)oc2cccc(OCC(=O)O)c12` [Example 159, L-2-{4′-[(4-Carboxymethoxy-3-methyl-benzofuran-2-carbonyl)-amino]-biphenyl-4-sulfonylamino}-3-methyl-butyric acid], the IC50 was 3520 nM in assay [1] and 8.5 nM in assay [2].

On to `Cc1c(C(=O)Nc2ccc(-c3ccc(S(=O)(=O)N[C@H](C(=O)O)C(C)O)cc3)cc2)oc2cccc(NS(C)(=O)=O)c12` (stereo partly drawn) [Example 65, L-3-Hydroxy-2-{4′-[(4-methanesulfonylamino-3-methyl-benzofuran-2-carbonyl)-amino]-biphenyl-4-sulfonylamino}-butyric acid], for which the IC50 in assay [1] came out at 2470 nM; in assay [2], 10.9 nM.

On to `CC(=O)Nc1ccc2oc(C(=O)Nc3ccc(-c4ccc(S(=O)(=O)NC(C(=O)O)C(C)C)cc4)cc3)cc2c1` (stereo in doubt) [Example 9, N-{[4′-({[5-(acetylamino)-1-benzofuran-2-yl]carbonyl}amino)-1,1′-biphenyl-4-yl]sulfonyl}-L-valine], for which the IC50 in assay [1] worked out at 4 nM; in assay [2], 1.3 nM.

`Cc1c(C(=O)Nc2ccc(-c3ccc(S(=O)(=O)N[C@H](C(=O)O)C(C)C)cc3)cc2)oc2cccc(N(C)S(C)(=O)=O)c12` [Example 37, L-2-(4′-{[4-(Methanesulfonyl-methyl-animo)-3-methyl-benzofuran-2-carbonyl]-amino}-biphenyl-4-sulfonylamino)-3-methyl-butyric acid]: the half-inhibitory concentration (IC50) in assay [1] was 2340 nM; in assay [2] it was 16 nM.

With `Cc1c(C(=O)Nc2ccc(-c3ccc(S(=O)(=O)N[C@H](C(=O)O)C(C)C)cc3)cc2)oc2cccc(OCc3ccccn3)c12` [Example 178, (S)-3-Methyl-2-(4′-{[3-methyl-4-(pyridin-2-ylmethoxy)-benzofuran-2-carbonyl]-amino}-biphenyl-4-sulfonylamino)-butyric acid], the results for the IC50 in assay [1] and in assay [2] were 3320 nM and 13 nM, respectively.

As to `COC/C=C\c1cccc2oc(C(=O)Nc3ccc(-c4ccc(S(=O)(=O)N[C@H](C(=O)O)C(C)C)cc4)cc3)c(C)c12` [Example 25, L-2-(4′-{[4-(3-Methoxy-Z-propenyl)-3-methyl-benzofuran-2-carbonyl]-amino}-biphenyl-4-sulfonylamino)-3-methyl-butyric acid], the IC50 in assay [1] was found to be 6320 nM; in assay [2] it was 14 nM.

Regarding `Cc1c(C(=O)Nc2ccc(-c3ccc(S(=O)(=O)N[C@H](C(=O)O)C(C)C)cc3)cc2)oc2cccc(-c3nn[nH]n3)c12` [Example 56, L-3-Methyl-2-(4′-{[3-methyl-4-(2H-tetrazol-5-yl)-benzofuran-2-carbonyl]-amino}-biphenyl-4-sulfonylamino)-butyric acid], the IC50 in assay [1] is 13300 nM; in assay [2], 13 nM.

These data come from US7420001B2 (Wyeth, priority 2003, dated 2008).
